In assay [1] the target is T1, PAR2 (HT-29 cells, SLIGKV activation) (Homo sapiens, UniProt P55085).
T1 construct: host or cells: HT-29 cells
T1 sequence (P55085 26-397): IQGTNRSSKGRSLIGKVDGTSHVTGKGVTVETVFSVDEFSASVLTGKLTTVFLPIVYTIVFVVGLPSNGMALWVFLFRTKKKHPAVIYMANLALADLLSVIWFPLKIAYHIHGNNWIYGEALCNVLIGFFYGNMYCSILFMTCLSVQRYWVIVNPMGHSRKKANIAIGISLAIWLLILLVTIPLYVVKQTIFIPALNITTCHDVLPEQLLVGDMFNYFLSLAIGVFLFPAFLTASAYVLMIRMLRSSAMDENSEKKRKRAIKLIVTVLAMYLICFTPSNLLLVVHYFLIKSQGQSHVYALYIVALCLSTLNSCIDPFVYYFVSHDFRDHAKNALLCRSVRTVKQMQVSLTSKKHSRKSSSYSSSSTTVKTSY
The assay is described as follows: Ca FLIPR TETRA assay, ANTAGONIST mode, stimulation with 8 μM SLIGKV. The settings on record: for IC50: HT-29 cells, stimulation with 8 μM SLIGKV. The format is cell-based. The essentials:
(§1)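 HT-29 cells grown overnight in 1% FBS McCoy's medium were loaded with calcium 5 dye (45 min 37 °C, 15 min r.t.). Compounds were added and Ca2+ read for direct activation, then after 30 min at r.t. cells were stimulated with 8 μM SLIGKV, 1 U/mL thrombin, 3.1 U/mL trypsin or 0.6 μM UTP (final).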

The target of assay [2] is T2, PAR2 (HT-29 cells, trypsin activation) (Homo sapiens, UniProt P55085).
T2 construct: host or cells: HT-29 cells
T2 sequence (P55085 26-397): T1 sequence (P55085 26-397)
Nature of the assay: Ca FLIPR TETRA assay, ANTAGONIST mode, stimulation with 3.1 U/mL trypsin. The format is cell-based. The settings on record: HT-29 cells, stimulation with 3.1 U/mL trypsin. A digest of the protocol: as §1

Assay [3] has as its system Thrombin-stimulated Ca2+ response in HT-29 cells. Nature of the assay: Ca FLIPR TETRA assay, ANTAGONIST mode, stimulation with 1 U/mL Thrombin. The format is cell-based, human. The note with it: for IC50: Homo sapiens, HT-29 cells, stimulation with 1 U/mL Thrombin. The essentials: as §1
The subject of assay [4] is UTP-stimulated Ca2+ response in HT-29 cells. The assay is described as follows: Ca FLIPR TETRA assay, ANTAGONIST mode, stimulation with 0.6 μM UTP. Format: cell-based, human. The note with it: for IC50: Homo sapiens, HT-29 cells, stimulation with 0.6 μM UTP. The essentials: as §1

On to `CC1CN(C(=O)c2cn3nc(-c4ccc(F)cc4)cc(C(F)(F)F)c3n2)CCC1O` (stereo not shown) [Compound I-68], for which the IC50 in assay [1] turned out to be 5.9 µM; in assay [2] it was 13 µM; in assay [3], 19 µM; in assay [4], 29 µM.
The matching figures for `CC(C)(O)C1CCCN(C(=O)c2cn3nc(-c4ccc(F)cc4)cc(C(F)(F)F)c3n2)C1` (stereo not shown) [Compound I-69]: 6 µM, 9.3 µM, 8.5 µM and 36 µM.
The matching figures for `O=C(c1cn2nc(-c3ccc(F)cc3)cc(C(F)(F)F)c2n1)N1CC[C@@]2(O)CCCC[C@H]2C1` [Compound I-70]: 3.7 µM, 5.7 µM, 12 µM and 17 µM.
The matching figures for `O=C(c1cn2nc(-c3ccc(F)cc3)cc(C(F)(F)F)c2n1)N1CCCCC1c1ccccc1` (stereo not shown) [Compound I-71]: 0.95 µM, 0.68 µM, 43 µM and > 50 µM.
Regarding `Cc1noc(C2CCCCN2C(=O)c2cn3nc(-c4ccc(F)cc4)cc(C(F)(F)F)c3n2)n1` (stereo not shown) [Compound I-72], the IC50 was 1.4 µM in assay [1], 1.5 µM in assay [2], 50 µM in assay [3] and > 50 µM in assay [4].
The matching figures for `CCOC(=O)[C@@H]1CCCN(C(=O)c2cn3nc(-c4ccc(F)cc4)cc(C(F)(F)F)c3n2)[C@@H]1C` [Compound I-75]: 1.1 µM, 1.2 µM, 1.6 µM and 2.2 µM.
The matching figures for `CCOC(=O)[C@H]1CCCN(C(=O)c2cn3nc(-c4ccc(F)cc4)cc(C(F)(F)F)c3n2)[C@@H]1C` [Compound I-76]: 3.3 µM, 4.8 µM, 5.5 µM and 4.4 µM.
The matching figures for `O=C(c1cn2nc(-c3ccc(F)cc3)cc(C(F)(F)F)c2n1)N1CCCCC1c1ccn[nH]1` (stereo not shown) [Compound I-78]: 0.51 µM, 1.6 µM, 4.1 µM and 4.5 µM.
`O=C(c1cn2nc(-c3ccc(F)cc3)cc(C(F)(F)F)c2n1)N1CCCCC1c1ccccn1` (stereo not shown) [Compound I-79]: the half-inhibitory concentration (IC50) in assay [1] was 1.3 µM; in assay [2], 1.7 µM; in assay [3], 2 µM; in assay [4], 3 µM.
The matching figures for `O=C(c1cn2nc(-c3ccc(F)cc3)cc(C(F)(F)F)c2n1)N1CCC(n2cc(-c3ccccc3)[nH]c2=O)CC1` [Compound I-80]: 0.054 µM, 0.082 µM, > 5 µM and > 5 µM.
Regarding `NC(=O)C1CCCCN1C(=O)c1cn2nc(-c3ccc(F)cc3)cc(C(F)(F)F)c2n1` (stereo not shown) [Compound I-81], the IC50 in assay [1] stood at 6.7 µM; in assay [2], 12 µM; in assay [3], 9.2 µM; in assay [4], 17 µM.
For `C[C@H]1CN(C(=O)c2cn3nc(-c4ccc(F)cc4)cc(C(F)(F)F)c3n2)CCN1C(=O)OCC(C)(C)C` [Compound I-82] the same measures were 0.022 µM, 0.1 µM, 14 µM and 22 µM.
Turning to `C[C@H]1CN(C(=O)c2cn3nc(-c4ccc(F)cc4)cc(C(F)(F)F)c3n2)CCN1C(=O)Oc1ccccc1` [Compound I-83], the “SLIGKV % @ concentration” value in assay [1] (@ 0.069 (μM)) was found to be 46% @ 0.069. Also, the IC50 in assay [2], in assay [3] and in assay [4] was > 50 µM throughout.
As for `CC(C)(C)OC(=O)N1CCCN(C(=O)c2cn3nc(-c4ccc(F)cc4)cc(C(F)(F)F)c3n2)CC1` [Compound I-84], the IC50 came to 0.79 µM in assay [1], 1.8 µM in assay [2], 6.4 µM in assay [3] and 5.1 µM in assay [4].
For the compound `C[C@H]1CN(C(=O)c2cn3nc(-c4ccc(F)cc4)cc(C(F)(F)F)c3n2)CCN1C(=O)[C@@H]1CCCO1` [Compound I-85], the IC50 in assay [1] came to 1.6 µM; in assay [2], 10 µM; in assay [3], 49 µM; in assay [4], 40 µM.
For `C[C@H]1CN(C(=O)c2cn3nc(-c4ccc(F)cc4)cc(C(F)(F)F)c3n2)CCN1C(=O)C1CCCCC1` [Compound I-86] the same measures were 0.078 µM, 0.6 µM, 35 µM and 37 µM.
The matching figures for `C[C@H]1CN(C(=O)c2cn3nc(-c4ccc(F)cc4)cc(C(F)(F)F)c3n2)CCN1C(=O)c1ccccc1` [Compound I-89]: 0.27 µM, 0.9 µM, > 50 µM and > 50 µM.
For `C[C@H]1CN(C(=O)c2cn3nc(-c4ccc(F)cc4)cc(C(F)(F)F)c3n2)CCN1C(=O)Cc1ccccc1` [Compound I-90] the same measures were 0.015 µM, 0.044 µM, > 5 µM and > 5 µM.
On to `CC(C)C(O)C(=O)N1CCN(C(=O)c2cn3nc(-c4ccc(F)cc4)cc(C(F)(F)F)c3n2)C[C@@H]1C` (stereo partly shown) [Compound I-91], for which the IC50 is 0.069 µM in assay [1], 1.5 µM in assay [2], 26 µM in assay [3] and 20 µM in assay [4].
For `C[C@H]1CN(C(=O)c2cn3nc(-c4ccc(F)cc4)cc(C(F)(F)F)c3n2)CCN1C(=O)C(O)Cc1ccccc1` (stereo partly shown) [Compound I-92] the same measures were 0.01 µM, 0.015 µM, > 5 µM and > 5 µM.
For the compound `CC1CN(C(=O)c2cn3nc(-c4ccc(F)cc4)cc(C(F)(F)F)c3n2)CCCN1C(=O)OC(C)(C)C` (stereo not shown) [Compound I-94], the IC50 is 3.6 µM in assay [1], 12 µM in assay [2], > 50 µM in assay [3] and > 50 µM in assay [4].
On to `CNC(=O)[C@@H]1CCN(C(=O)c2cn3nc(-c4ccc(F)cc4)cc(C(F)(F)F)c3n2)C[C@@H]1C` [Compound I-95], for which the IC50 in assay [1] was 1.6 µM; in assay [2] it was 7.2 µM; in assay [3], > 50 µM; in assay [4] it was 43 µM.
Regarding `CC(C)c1cc(-c2ccc(F)cc2)nn2cc(C(=O)N3CCN(C(=O)OC(C)(C)C)[C@@H](C)C3)nc12` [Compound I-96], the results for the IC50 in assay [1] and in assay [2] were 0.044 µM and 0.15 µM, respectively. Further, the “Thrombin % @ concentration” value in assay [3] (@ 50 (μM)) amounted to 52% @ 50. Further, the “UTP % @ concentration” value in assay [4] (@ 50 (μM)) was 66% @ 50.
Consider `CC(C)c1cc(-c2ccc(F)cc2)nn2cc(C(=O)N3CCN(C(=O)[C@H](O)CC(C)(C)C)[C@@H](C)C3)nc12` [Compound I-97], for which the IC50 in assay [1] was 0.0007 µM; in assay [2], 0.0006 µM; in assay [3], > 5 µM; in assay [4], > 5 µM.
Consider `C=C(C)c1cc(-c2ccc(F)cc2)nn2cc(C(=O)N3CCN(C(=O)[C@H](O)CC(C)(C)C)[C@@H](C)C3)nc12` [Compound I-99], for which the IC50 was 0.003 µM in assay [1], 0.01 µM in assay [2], > 50 µM in assay [3] and > 50 µM in assay [4].
As to `C[C@H]1CN(C(=O)c2cn3nc(-c4ccc(F)cc4)cc(C(F)(F)F)c3n2)CCN1C(=O)C(O)c1cccnc1` (stereo partly shown) [Compound I-100], the IC50 in assay [1] was 0.2 µM; in assay [2], 3 µM; in assay [3], 43 µM; in assay [4], 48 µM.
For `CC(C)c1cc(-c2ccc(F)cc2)nn2cc(C(=O)N3CCN(C(=O)C(O)c4cccnc4)[C@@H](C)C3)nc12` (stereo partly shown) [Compound I-101] the same measures were 0.007 µM, 1.4 µM, 27 µM and 30 µM.
For `Cc1cc(-c2ccc(F)cc2)nn2cc(C(=O)N3CCN(C(=O)[C@H](O)CC(C)(C)C)CC3(C)C)nc12` [Compound I-102] the same measures were 0.003 µM, 0.008 µM, 17 µM and 23 µM.
For `CC(C)c1cc(-c2ccc(F)cc2)nn2cc(C(=O)N3CCN(C(=O)[C@H](O)CC(C)(C)C)CC3(C)C)nc12` [Compound I-103] the same measures were 0.0004 µM, 0.0009 µM, > 5 µM and > 5 µM.
For the compound `CCc1cc(-c2ccc(F)cc2)nn2cc(C(=O)N3CCN(C(=O)[C@H](O)CC(C)(C)C)[C@@H](C)C3)nc12` [Compound I-104], the IC50 in assay [1] is 0.002 µM; in assay [2], 0.007 µM; in assay [3], 15 µM; in assay [4] it was 12 µM.
The matching figures for `CC(C)C[C@@H](O)C(=O)N1CCN(C(=O)c2cn3nc(-c4ccc(F)cc4)cc(C(C)C)c3n2)C[C@@H]1C` [Compound I-105]: 0.0004 µM, 0.0008 µM, 10 µM and 8.8 µM.

As usually defined, the IC50 is the concentration at which inhibition is half-maximal.
